# Reference: patent US20150005281A1, “PYRIMIDINE-2,4-DIAMINE DERIVATIVES AS KINASE INHIBITORS” (Cellzome Limited, priority 2011, published 2015)
# Where a name gives a salt, the structure may show the parent alone.
# Legend:
# Format in all cases: binding
# [1] = biological target: T1, TYK2 (Homo sapiens, UniProt P29597); assay: Kinobeads assay with immunodetection, TYK2; details: for IC50: Kinobeads assay, mixed Molt4/Ramos lysate, read-out: Inhibition values (IC50) Tyk2
# T1 construct: endogenous in cells; host or cells: Molt4 (ATCC CRL-1582) and Ramos (ATCC CRL-1596) cells; mixed lysate 1:2
# T1 sequence (P29597 whole entry): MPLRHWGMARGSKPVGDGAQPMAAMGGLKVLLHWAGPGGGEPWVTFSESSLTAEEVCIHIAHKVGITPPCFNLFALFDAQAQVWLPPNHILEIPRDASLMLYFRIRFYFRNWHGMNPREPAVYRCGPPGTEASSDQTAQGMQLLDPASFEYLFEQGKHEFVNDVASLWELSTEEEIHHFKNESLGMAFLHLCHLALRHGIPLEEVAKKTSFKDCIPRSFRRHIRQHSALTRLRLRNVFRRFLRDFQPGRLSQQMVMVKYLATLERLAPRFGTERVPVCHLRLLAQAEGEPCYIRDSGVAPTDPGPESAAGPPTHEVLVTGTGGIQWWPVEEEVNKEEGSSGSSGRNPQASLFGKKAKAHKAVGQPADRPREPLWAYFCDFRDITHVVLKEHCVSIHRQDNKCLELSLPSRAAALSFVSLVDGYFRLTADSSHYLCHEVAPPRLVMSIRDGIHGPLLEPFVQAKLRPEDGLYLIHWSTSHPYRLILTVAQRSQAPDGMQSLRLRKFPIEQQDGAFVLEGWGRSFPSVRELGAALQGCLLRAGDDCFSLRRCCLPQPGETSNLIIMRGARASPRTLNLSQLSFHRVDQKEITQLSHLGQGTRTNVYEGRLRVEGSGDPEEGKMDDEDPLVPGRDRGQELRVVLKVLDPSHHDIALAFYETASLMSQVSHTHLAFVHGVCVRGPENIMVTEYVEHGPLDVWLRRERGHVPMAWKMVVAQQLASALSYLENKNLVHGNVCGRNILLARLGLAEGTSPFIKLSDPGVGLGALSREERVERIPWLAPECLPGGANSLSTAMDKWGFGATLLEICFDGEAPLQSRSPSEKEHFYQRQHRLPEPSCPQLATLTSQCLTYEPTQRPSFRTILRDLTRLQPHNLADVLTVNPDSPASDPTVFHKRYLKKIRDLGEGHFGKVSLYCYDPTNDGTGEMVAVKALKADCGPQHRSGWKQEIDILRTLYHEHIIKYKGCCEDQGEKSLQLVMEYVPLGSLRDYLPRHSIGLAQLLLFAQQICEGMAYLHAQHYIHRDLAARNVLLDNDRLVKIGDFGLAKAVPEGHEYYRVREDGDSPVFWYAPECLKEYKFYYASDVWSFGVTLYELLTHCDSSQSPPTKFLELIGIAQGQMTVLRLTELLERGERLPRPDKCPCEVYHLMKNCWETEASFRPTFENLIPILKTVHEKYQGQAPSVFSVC
# Procedure: (§1) Determination of the Effect of the Compounds According to the Invention on Janus Kinases (JAK Family) in Kinobeads™ Assays with Immunodetection of Kinases
# (§2) The compounds of the present invention as described in the previous examples were tested in a Kinobeads™ assay as described for ZAP-70 (WO-A 2007/137867). Briefly, test compounds (at various concentrations) and the affinity matrix with the immobilized aminopyrido-pyrimidine ligand 24 were added to cell lysate aliquots and allowed to bind to the proteins in the lysate sample. After the incubation time the beads with captured proteins were separated from the lysate. Bound proteins were then eluted and the presence of JAK1, JAK2, JAK3 and TYK2 was detected and quantified using specific antibodies in a dot blot procedure and the Odyssey infrared detection system. Dose response curves for individual kinases were generated and IC50 values calculated. Kinobeads™ assays for ZAP-70 (WO-A 2007/137867) and for kinase selectivity profiling (WO-A 2006/134056) have been previously described.
# (§3) The affinity matrix was washed two times with 15 mL of 1×DP buffer containing 0.2% NP40 (IGEPAL® CA-630, Sigma, #13021) and then resuspended in 1×DP buffer containing 0.2% NP40 (3% beads slurry).
# (§4) 5×DP buffer: 250 mM Tris-HCl pH 7.4, 25% Glycerol, 7.5 mM MgCl2, 750 mM NaCl, 5 mM Na3VO4; filter the 5×DP buffer through a 0.22 μm filter and store in aliquots at −80° C. The 5×DP buffer is diluted with H2O to 1×DP buffer containing 1 mM DTT and 25 mM NaF.
# (§5) Stock solutions of test compounds were prepared in DMSO. In a 96 well plate 30 μL solution of diluted test compounds at 5 mM in DMSO were prepared. Starting with this solution a 1:3 dilution series (9 steps) was prepared. For control experiments (no test compound) a buffer containing 2% DMSO was used.
# (§6) Molt4 cells (ATCC catalogue number CRL-1582) and Ramos cells (ATCC catalogue number CRL-1596) were grown in 1 L Spinner flasks (Integra Biosciences, #182101) in suspension in RPMI 1640 medium (Invitrogen, #21875-034) supplemented with 10% Fetal Bovine Serum (Invitrogen) at a density between 0.15×10^6 and 1.2×10^6 cells/mL. Cells were harvested by centrifugation, washed once with 1×PBS buffer (Invitrogen, #14190-094) and cell pellets were frozen in liquid nitrogen and subsequently stored at −80° C. Cells were homogenized in a Potter S homogenizer in lysis buffer: 50 mM Tris-HCl, 0.8% NP40, 5% glycerol, 150 mM NaCl, 1.5 mM MgCl2, 25 mM NaF, 1 mM sodium vanadate, 1 mM DTT, pH 7.5. One complete EDTA-free tablet (protease inhibitor cocktail, Roche Diagnostics, 1873580) per 25 ml, buffer was added. The material was dounced 10 times using a mechanized POTTER S, transferred to 50 mL falcon tubes, incubated for 30 minutes on ice and spun down for 10 minutes at 20,000 g at 4° C. (10,000 rpm in Sorvall SLA600, precooled). The supernatant was transferred to an ultracentrifuge (UZ)-polycarbonate tube (Beckmann, 355654) and spun for 1 hour at 100.000 g at 4° C. (33.500 rpm in Ti50.2, precooled). The supernatant was transferred again to a fresh 50 mL falcon tube, the protein concentration was determined by a Bradford assay (BioRad) and samples containing 50 mg of protein per aliquot were prepared. The samples were immediately used for experiments or frozen in liquid nitrogen and stored frozen at −80° C.
# (§7) Cell lysate (approximately 50 mg protein per plate) was thawed in a water bath at room temperature and then stored on ice. To the thawed cell lysate 1×DP 0.8% NP40 buffer containing protease inhibitors (1 tablet for 25 mL buffer; EDTA-free protease inhibitor cocktail; Roche Diagnostics 1873580) was added in order to reach a final protein concentration of 10 mg/mL total protein. The diluted cell lysate was stored on ice. Mixed Molt4/Ramos lysate was prepared by combining one volume of Molt4 lysate and two volumes of Ramos lysate (ratio 1:2). […]
# [2] = biological target: T2, JAK3 (Homo sapiens, UniProt P52333); assay: Kinobeads assay with immunodetection, JAK3; details: for IC50: Kinobeads assay, mixed Molt4/Ramos lysate, read-out: Inhibition values (IC50) JAK3
# T2 construct: endogenous in cells; host or cells: Molt4 (ATCC CRL-1582) and Ramos (ATCC CRL-1596) cells; mixed lysate 1:2
# T2 sequence (P52333 1-1124): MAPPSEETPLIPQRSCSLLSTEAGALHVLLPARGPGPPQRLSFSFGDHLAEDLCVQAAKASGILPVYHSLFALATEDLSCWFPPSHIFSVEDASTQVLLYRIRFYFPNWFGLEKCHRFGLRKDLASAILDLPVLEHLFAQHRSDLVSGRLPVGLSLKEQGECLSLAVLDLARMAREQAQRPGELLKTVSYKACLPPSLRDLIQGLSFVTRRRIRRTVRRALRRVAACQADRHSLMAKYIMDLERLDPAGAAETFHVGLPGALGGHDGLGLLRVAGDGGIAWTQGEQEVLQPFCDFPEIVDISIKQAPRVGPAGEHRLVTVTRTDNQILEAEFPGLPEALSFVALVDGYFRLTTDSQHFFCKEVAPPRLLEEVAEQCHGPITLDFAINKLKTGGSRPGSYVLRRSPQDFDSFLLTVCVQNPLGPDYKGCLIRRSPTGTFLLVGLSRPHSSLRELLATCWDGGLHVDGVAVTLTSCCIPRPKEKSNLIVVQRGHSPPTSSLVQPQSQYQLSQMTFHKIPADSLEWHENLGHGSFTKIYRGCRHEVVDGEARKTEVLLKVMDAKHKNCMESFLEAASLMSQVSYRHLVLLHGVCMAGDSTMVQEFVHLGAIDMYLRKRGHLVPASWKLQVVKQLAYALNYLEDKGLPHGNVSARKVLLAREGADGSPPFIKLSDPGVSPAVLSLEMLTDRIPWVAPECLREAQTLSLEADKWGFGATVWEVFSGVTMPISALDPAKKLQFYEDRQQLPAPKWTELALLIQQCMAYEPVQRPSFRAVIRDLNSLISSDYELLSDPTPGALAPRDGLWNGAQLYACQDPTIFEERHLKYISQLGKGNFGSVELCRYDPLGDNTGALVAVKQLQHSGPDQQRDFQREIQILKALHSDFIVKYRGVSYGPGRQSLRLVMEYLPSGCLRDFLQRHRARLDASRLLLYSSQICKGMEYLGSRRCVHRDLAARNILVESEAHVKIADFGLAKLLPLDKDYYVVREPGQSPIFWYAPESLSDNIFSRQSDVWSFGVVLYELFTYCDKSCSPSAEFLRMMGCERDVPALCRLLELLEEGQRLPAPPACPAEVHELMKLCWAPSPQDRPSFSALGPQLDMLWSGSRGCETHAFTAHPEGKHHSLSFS
# Procedure: as §1, §2, §3, §4, §5, §6, §7
# [3] = biological target: T3, JAK1 (Homo sapiens, UniProt P23458); assay: Kinobeads assay with immunodetection, JAK1; details: for IC50: Kinobeads assay, mixed Molt4/Ramos lysate, read-out: Inhibition values (IC50) JAK1
# T3 construct: endogenous in cells; host or cells: Molt4 (ATCC CRL-1582) and Ramos (ATCC CRL-1596) cells; mixed lysate 1:2
# T3 sequence (P23458 whole entry): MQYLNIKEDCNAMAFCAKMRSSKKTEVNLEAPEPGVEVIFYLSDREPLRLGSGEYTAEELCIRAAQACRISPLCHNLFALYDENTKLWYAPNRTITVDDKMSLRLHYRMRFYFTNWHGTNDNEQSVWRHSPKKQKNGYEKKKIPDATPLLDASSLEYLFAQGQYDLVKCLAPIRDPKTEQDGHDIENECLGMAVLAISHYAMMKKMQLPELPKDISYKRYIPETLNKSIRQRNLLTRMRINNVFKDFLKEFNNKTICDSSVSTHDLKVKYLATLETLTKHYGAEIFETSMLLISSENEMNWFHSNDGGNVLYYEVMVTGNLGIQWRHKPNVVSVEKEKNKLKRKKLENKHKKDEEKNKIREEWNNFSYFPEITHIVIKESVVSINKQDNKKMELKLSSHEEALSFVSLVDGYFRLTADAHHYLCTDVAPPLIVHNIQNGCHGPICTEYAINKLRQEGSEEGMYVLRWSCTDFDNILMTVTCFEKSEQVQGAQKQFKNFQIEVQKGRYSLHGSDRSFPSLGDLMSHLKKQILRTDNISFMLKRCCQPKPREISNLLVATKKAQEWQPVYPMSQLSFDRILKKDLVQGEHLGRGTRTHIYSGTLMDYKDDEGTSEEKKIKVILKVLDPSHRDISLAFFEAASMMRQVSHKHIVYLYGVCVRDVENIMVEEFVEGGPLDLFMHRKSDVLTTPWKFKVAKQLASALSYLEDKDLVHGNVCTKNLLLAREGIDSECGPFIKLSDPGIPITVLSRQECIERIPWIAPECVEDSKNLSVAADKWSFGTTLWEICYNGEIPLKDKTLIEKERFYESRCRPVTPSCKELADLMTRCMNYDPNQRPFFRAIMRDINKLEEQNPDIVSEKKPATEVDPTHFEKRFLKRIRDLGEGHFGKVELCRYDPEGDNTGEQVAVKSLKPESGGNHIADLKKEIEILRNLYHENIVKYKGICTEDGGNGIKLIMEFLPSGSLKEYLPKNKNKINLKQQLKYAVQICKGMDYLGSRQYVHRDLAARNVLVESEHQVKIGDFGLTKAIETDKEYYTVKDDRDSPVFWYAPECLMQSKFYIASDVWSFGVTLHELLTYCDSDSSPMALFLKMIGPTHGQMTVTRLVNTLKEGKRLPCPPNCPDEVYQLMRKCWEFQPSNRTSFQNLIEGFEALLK
# Procedure: as §1, §2, §3, §4, §5, §6, §7
# [4] = biological target: T4, JAK2 (Homo sapiens, UniProt O60674); assay: Kinobeads assay with immunodetection, JAK2; details: mixed Molt4/Ramos lysate, read-out: Inhibition values (IC50) JAK2
# T4 construct: endogenous in cells; host or cells: Molt4 (ATCC CRL-1582) and Ramos (ATCC CRL-1596) cells; mixed lysate 1:2
# T4 sequence (O60674 whole entry): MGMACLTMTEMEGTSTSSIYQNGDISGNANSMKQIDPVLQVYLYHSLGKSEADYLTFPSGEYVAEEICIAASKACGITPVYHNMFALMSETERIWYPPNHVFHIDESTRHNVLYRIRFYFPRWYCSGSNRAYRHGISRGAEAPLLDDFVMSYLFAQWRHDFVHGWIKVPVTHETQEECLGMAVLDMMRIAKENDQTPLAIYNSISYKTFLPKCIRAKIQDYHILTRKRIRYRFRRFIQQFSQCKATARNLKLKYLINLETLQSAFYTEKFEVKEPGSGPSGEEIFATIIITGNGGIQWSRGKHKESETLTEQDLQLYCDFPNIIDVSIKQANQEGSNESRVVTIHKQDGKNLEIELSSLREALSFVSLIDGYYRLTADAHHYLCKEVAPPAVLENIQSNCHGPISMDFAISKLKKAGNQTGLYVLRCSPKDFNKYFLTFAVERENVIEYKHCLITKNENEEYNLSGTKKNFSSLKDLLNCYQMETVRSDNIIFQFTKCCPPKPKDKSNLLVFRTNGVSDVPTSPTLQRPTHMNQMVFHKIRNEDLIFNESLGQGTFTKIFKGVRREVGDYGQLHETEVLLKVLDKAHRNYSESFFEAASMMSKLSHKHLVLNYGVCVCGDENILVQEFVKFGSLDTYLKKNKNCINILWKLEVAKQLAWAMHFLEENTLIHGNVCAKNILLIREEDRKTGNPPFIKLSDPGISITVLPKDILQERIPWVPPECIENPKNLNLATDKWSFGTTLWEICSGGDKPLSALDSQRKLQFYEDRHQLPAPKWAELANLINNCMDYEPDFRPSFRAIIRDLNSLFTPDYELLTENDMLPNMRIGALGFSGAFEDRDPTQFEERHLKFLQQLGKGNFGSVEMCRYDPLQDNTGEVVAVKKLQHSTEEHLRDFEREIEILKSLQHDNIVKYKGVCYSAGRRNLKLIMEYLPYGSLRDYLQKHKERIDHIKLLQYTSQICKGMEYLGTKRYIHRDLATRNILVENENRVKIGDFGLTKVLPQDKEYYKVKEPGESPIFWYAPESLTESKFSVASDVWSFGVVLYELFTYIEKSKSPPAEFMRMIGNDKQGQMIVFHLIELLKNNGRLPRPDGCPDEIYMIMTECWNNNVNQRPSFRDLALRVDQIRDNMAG
# Procedure: as §1, §2, §3, §4, §5, §6, §7
IC50 [1] [nM],IC50 [2] [nM],"Selectivity ratio over JAK2, JAK1 [3]",IC50 [3] [nM],IC50 [4] [nM],"Selectivity ratio over JAK2, Tyk2 [1]","Selectivity ratio over JAK2, JAK3 [2]",SMILES
< 100,100 to 1000,JAK1 = 139,< 100,1000 to 10000,–,–,"Cc1cnc(Nc2cnn(CC(F)F)c2)nc1NC[C@H]1CCN(C(=O)CC#N)C1 [Example 129, (R)-3-(3-(((2-((1-(2,2-difluoroethyl)-1H-pyrazol-4-yl)amino)-5-methylpyrimidin-4-yl)amino)methyl)pyrrolidin-1-yl)-3-oxopropanenitrile]"
< 100,1000 to 10000,–,1000 to 10000,> 10000,Tyk2 = 650,–,"CC(C)NC(=O)Cn1cc(Nc2nccc(NC[C@H]3CCCN3CCC#N)n2)cn1 [Example 83, (R)-2-(4-((4-(((1-(2-cyanoethyl)pyrrolidin-2-yl)methyl)amino)pyrimidin-2-yl)amino)-1H-pyrazol-1-yl)-N-isopropylacetamide]"
100 to 1000,100 to 1000,–,100 to 1000,1000 to 10000,–,JAK3 = 5,"Cn1cc(Nc2ncc(Cl)c(NCC3CCCCC3)n2)cn1 [Example 47, 5-chloro-N^4-(cyclohexylmethyl)-N^2-(1-methyl-1H-pyrazol-4-yl)pyrimidine-2,4-diamine]"
< 100,1000 to 10000,–,100 to 1000,1000 to 10000,Tyk2 = 609,–,"CC(C)NC(=O)Cn1cc(Nc2nccc(NC[C@H]3CCCN3C(=O)CCC#N)n2)cn1 [Example 94, (R)-2-(4-((4-(((1-(3-cyanopropanoyl)pyrrolidin-2-yl)methyl)amino)pyrimidin-2-yl)amino)-1H-pyrazol-1-yl)-N-isopropylacetamide]"
< 100,< 100,–,< 100,1000 to 10000,–,JAK3 = 270,"C=CC(=O)N1CC[C@H](CNc2nc(Nc3cnn(CCO)c3)ncc2Cl)C1 [Example 23, (R)-1-(3-(((5-chloro-2-((1-(2-hydroxyethyl)-1H-pyrazol-4-yl)amino)pyrimidin-4-yl)amino)methyl)pyrrolidin-1-yl)prop-2-en-1-one]"
< 100,100 to 1000,JAK1 = 100,< 100,1000 to 10000,–,–,"Cn1cc(Nc2ncc(Cl)c(NC[C@@H]3C[C@H](F)CN3CCCS(C)(=O)=O)n2)cn1 [Example 132, 5-chloro-N^4-(((2S,4S)-4-fluoro-1-(3-(methylsulfonyl)propyl)pyrrolidin-2-yl)methyl)-N^2-(1-methyl-1H-pyrazol-4-yl)pyrimidine-2,4-diamine]"
100 to 1000,1000 to 10000,JAK1 = 42,100 to 1000,1000 to 10000,–,–,"CC(=O)N1CC[C@H](CNc2nc(Nc3cnn(C)c3)ncc2Cl)C1 [Example 20, (R)-1-(3-(((5-chloro-2-((1-methyl-1H-pyrazol-4-yl)amino)pyrimidin-4-yl)amino)methyl)pyrrolidin-1-yl)ethanone]"
1000 to 10000,1000 to 10000,–,1000 to 10000,> 10000,–,–,"Cc1cnc(Nc2cnn(C)c2)nc1NC[C@@H]1CCCN1 [Example 73, (S)-5-methyl-N^2-(1-methyl-1H-pyrazol-4-yl)-N^4-(pyrrolidin-2-ylmethyl)pyrimidine-2,4-diamine Hydrochloride]"
< 100,100 to 1000,–,< 100,< 100,Tyk2 = 11,–,"Cn1cc(Nc2ncc(Cl)c(NC[C@@H]3CCCN3CCC#N)n2)cn1 [Example 81, (S)-3-(2-(((5-chloro-2-((1-methyl-1H-pyrazol-4-yl)amino)pyrimidin-4-yl)amino)methyl)pyrrolidin-1-yl)propanenitrile]"
100 to 1000,< 100,–,100 to 1000,1000 to 10000,–,JAK3 = 610,"C=CC(=O)N1CC[C@H](CNc2nc(Nc3cnn(C)c3)ncc2Cl)C1 [Example 22, (R)-1-(3-(((5-chloro-2-((1-methyl-1H-pyrazol-4-yl)amino)pyrimidin-4-yl)amino)methyl)pyrrolidin-1-yl)prop-2-en-1-one]"
< 100,100 to 1000,–,100 to 1000,> 10000,Tyk2 = 435,–,"CC(C)NC(=O)Cn1cc(Nc2nccc(NC[C@H]3CCCN3CCS(C)(=O)=O)n2)cn1 [Example 84, (R)—N-isopropyl-2-(4-((4-(((1-(2-(methylsulfonyl)ethyl)pyrrolidin-2-yl)methyl)amino)pyrimidin-2-yl)amino)-1H-pyrazol-1-yl)acetamide]"
< 100,100 to 1000,JAK1 = 34,< 100,< 100,–,–,"Cn1cc(Nc2ncc(Cl)c(NC[C@@H]3CCCN3CCS(C)(=O)=O)n2)cn1 [Example 82, (S)-5-chloro-N^2-(1-methyl-1H-pyrazol-4-yl)-N^4-((1-(2-(methylsulfonyl)ethyl)pyrrolidin-2-yl)methyl)pyrimidine-2,4-diamine]"
